Results from patent US8877795B2, “Identification of stabilizers of multimeric proteins” (The Board of Trustees of the Leland Stanford Junior …, priority 2010, dated 2014).
Read-outs that look alike come from different tables or passages of the source.

Tests used:
TTR [1] = target: T1, TTR (Homo sapiens (Human), UniProt P02766); settings: read-out: Kd (reported affinity for TTR); cited from earlier work
human wild type TTR = human wild type TTR (Homo sapiens (Human), UniProt P02766); assay: Isothermal titration calorimetry (ITC) of ligands against TTR; type: binding; settings: for TΔS binding entropy / ΔG binding free energy / ΔH binding enthalpy: ITC; for Kd: TTR 2 μM titrated with ligand 25 μM
Method: Calorimetric titrations were carried out on a VP-ITC calorimeter (MicroCal, Northhampton, Mass.). […] Prior to each titration, all samples were degassed for 10 minutes. The initial injection of 3.0 μL was followed by 30 injections of 8.0 μL each (25° C.) to the point that TTR was fully saturated with ligand. Integration of the thermogram after subtraction of blanks yielded a binding isotherm that was analyzed with MicroCal Origin 5.0 software.

TTR [2] = target: T1, TTR; assay: Fluorescence polarization displacement assay (probe 5 displaced from TTR); type: binding; settings: probe 5 100 nM, TTR 200 nM
Method: The affinity of test compounds to TTR was determined as follows. […] The samples were allowed to equilibrate by agitation for 20 min at room temperature and the fluorescence polarization was measured as described above. The data were fit to the following equation [y=(A−D)/(1+(x/C)^B)+D] where A=maximum FP signal, B=slope, C=apparent binding constant (Kapp), and D=minimum FP signal. The apparent binding constant was reported as mean for triplicate experiments and the best data fit was determined by R^2 value.

[3] = target: wild type biotinylated TTR (Homo sapiens (Human), UniProt P02766); assay: Surface plasmon resonance (SPR) assay for TTR-ligand interaction; type: binding
Method: To an ice-cold solution of TTR (20 μM) in PBS was added EZ-Link Sulfo-NHS-LC-Biotin at a ratio of ˜2:1 (biotin:TTR) (minimal biotinylation) and the solution was incubated at room temperature. After 1 hour, un-reacted biotin was removed by passing the sample over a fast (FPLC) desalting column (Superdex™ 75) equilibrated with PBS.
SPR measurements were performed at 25° C. using a Biacore T100 (GE Healthcare) instrument equilibrated in 1% DMSO in PBS as a running buffer. After pretreatment of the streptavidin-coated chip (Sensor Chop SA, Biacore), ˜4000 RU biotinylated TTR was immobilized on one channel leaving the second flow channel as a blank (streptavidin alone) control. For binding measurements, HTS hits were diluted in running buffer (1% DMSO/PBS) and different dilution series were flowed over the chip at 50 μL/min ([…], 600 s wash). A zero concentration sample was used as a negative control. The kinetic data was fitted to a one-to-one binding model using Biacore T100 evaluation software.

WT TTR = WT TTR (Homo sapiens (Human), UniProt P02766); assay: Acid-mediated fibril formation assay for TTR amyloidogenesis (turbidity); settings: TTR 3.6 μM; for inhibition of fibril formation: substoichiometric: ligand 3.0 μM, monitored over 5 days
Method: The efficacy of each compound to inhibit TTR amyloidogenesis was determined by monitoring the turbidity of TTR aggregation at acidic pH, as described previously. […] The final 1 ml sample mixture was vortexed, then incubated at 37° C. for 72 hours, after which the sample was vortexed and the optical density was measured at 400 nm on a Beckman DU® 640 spectrophotometer. […] The optical density was also corrected for the absorption of all test compounds in the absence of TTR. […] The optical density (400 nm) was measured as described above at 0, 24, 48, 72, 96, and 120 hours. All assays were performed in triplicate and the average values obtained are presented.
TTR was preincubated with small molecules for 30 min at room temperature before amyloidosis was initiated (lowering pH to 4.4, incubation at 37° C.). […] The amyloidogenesis inhibition efficacy of each compound was determined by monitoring the turbidity of TTR (400 nm). The extent of TTR amyloidogenesis was quantitated at a fixed time point (72 h). All amyloid fibril formation data was normalized to TTR amyloidogenesis in the absence of inhibitor, assigned to be 100% fibril formation. […] The aggregation inhibition was monitored over 5 days using the acid-mediated fibril formation assay (compared to 3 days for the fixed time point described above) (FIG. 5B).

[4] = system: V122I TTR cytotoxicity in human AC16 cardiac cells; assay: Inhibition of V122I TTR cytotoxicity in AC16 cells; settings: TTR and ligand 8 μM, 24 h
Method: (§1) The human cardiac cell line AC16 was maintained in DMEM:F12 (1:1) supplemented with 10% FBS, 1 mM Hepes buffer, 2 mM L-glutamine, 100 units/mL penicillin and 100 μg/mL streptomycin. Two to 4-day-old cultures (˜70% confluent) were used for the experiments.
(§2) Recombinant WT TTR purified in the cold in HBSS (Mediatech, Manassas, Va.) was used as a cytotoxic insult to IMR-32 cells and the amyloidogenic V122I TTR was used as cytotoxic insult to cardiac AC16 cells. Candidate compounds (16 mM in DMSO) were diluted 1:1000 with WT TTR or V122I TTR (16 mM in HBSS, filter sterilized) or with HBSS only. The mixtures were vortexed and incubated for 24 h at 4° C. WT TTR or V122I TTR (16 mM in HBSS) containing the same amount of DMSO than TTR/candidate compound mixtures was prepared in parallel and incubated under the same conditions.
(§3) The neuroblastoma IMR-32 and the cardiac AC16 cells were seeded in black wall, clear bottom, tissue culture treated 96-well plates (Costar) at a density of 6,000 cells/well and 250 cells/well, respectively in Opti-mem supplemented with 5% FBS, 1 mM Hepes buffer, 2 mM L-glutamine, 100 units/mL penicillin and 100 μg/mL streptomycin, 0.05 mg/mL CaCl2 and incubated overnight at 37° C. The medium was then removed and replaced immediately by the TTR/compound or HBSS previously diluted 1:1 in Opti-mem supplemented with 0.8 mg/mL BSA, 2 mM Hepes buffer, 4 mM L-glutamine, 200 units/mL penicillin, 200 μg/mL streptomycin and 0.1 mg/mL CaCl2. The cells were incubated 24 h at 37° C. after which cell viability was measured.
(§4) Cell viability of the cells treated with TTR or TTR/candidate compound was evaluated by a resazurin reduction assay. Briefly, 10 μL/well of resazurin (500 mM, PBS) was added to each well and incubated for 2-3 h at 37° C. Viable cells reduce resazurin to the highly fluorescent resorufin dye, which is quantitated in a multiwell plate reader (Ex/Em 530/590 nm, Tecan Safire2, Austria). Cell viability was calculated as percentage of fluorescence relative to cells treated with vehicle only (100% viability) after subtraction of blank fluorescence (wells without cells). All experimental conditions were performed at least in six replicates. Averages and SEM corresponding to 2 independently performed experiments were calculated.
(§5) The compounds under study were pre-incubated with WT TTR or V122I TTR for 24 h at 4° C. at equimolar concentrations (8 μM) and added to IMR-32 cells or AC16 cells, respectively. Cell viability was measured after 24 h by a resazurin reduction assay. […] The percentage of viable cells was calculated relative to cells treated with vehicle only (cell culture media and DMSO)—which were assigned to be 100% viable.

[5] = system: WT TTR cytotoxicity in human IMR-32 neuroblastoma cells; assay: Inhibition of WT TTR cytotoxicity in IMR-32 cells; settings: TTR and ligand 8 μM, 24 h
Method: as §1, §2, §3, §4, §5

TTR [6] = target: T1, TTR; assay: Fluorescence polarization saturation binding experiment
Method: The binding of probe 5 for TTR was evaluated as follows. […] The samples were allowed to equilibrate by agitation for 20 min at room temperature. Fluorescence polarization (excitation λ 485 nm, emission λ 525 nm, Cutoff λ 515 nm) measurements were taken using SpectraMax M5 Microplate Reader (Molecular Devices). […] Nonspecific FP, produced by the free fluorescent probe 5 as well as by binding of 5 to the plate, was equal to 70±10 mP.

IL-2 = IL-2 (Homo sapiens (Human), UniProt P60568); settings: cited from earlier work
IL-2, sequence (P60568 21-153): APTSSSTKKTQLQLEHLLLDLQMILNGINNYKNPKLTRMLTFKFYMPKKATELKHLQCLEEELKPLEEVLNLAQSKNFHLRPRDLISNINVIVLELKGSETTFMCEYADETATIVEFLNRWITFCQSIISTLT

[7] = 25° C., one-to-one binding model, read-out: Kd (ITC)
[8] = read-out: FP Kapp (apparent binding constant)

TΔS binding entropy (human wild type TTR) [kJ/mol]	ΔG binding free energy (human wild type TTR) [kJ/mol]	ΔH binding enthalpy (human wild type TTR) [kJ/mol]	Kd (human wild type TTR; [7]) [µM]	Kd (human wild type TTR; read-out: ITC Kd) [µM]	Kd (TTR [2]; [8]) [µM]	Molecule	inhibition of fibril formation (WT TTR) [%]	other results
-90.88 ± 1.09	-40.8 ± 0.418	-131.6 ± 1.55	0.0725 ± 0.0047	0.0724		O=C(O)c1ccc(-c2c(F)cccc2F)cc1 [Compound 1, reference compound]		Kd (TTR [1]): 0.08 µM; apparent binding constant (Kapp) (TTR [2]; [8]): 231 nM
			> 3.29	> 3.29	> 50	NCCOCCOCCNC(=O)c1ccc(-c2c(F)cccc2F)cc1 [Compound 2, N-(2-(2-(2-aminoethoxy)ethoxy)ethyl)-2′,6′-difluorobiphenyl-4-carboxamide]		displacement of probe 5 from TTR (FP signal) (TTR [2]): did not displace probe 5
17.1 ± 1.55	-36.7 ± 2.47	-19.6 ± 1.76	0.37	0.37	4.66	O=C(O)Cc1ccccc1Nc1c(Cl)cccc1Cl [Diclofenac, reference compound]	~55	Kd ([3]; 25° C., read-out: Kd (SPR, equilibrium / steady state analysis)): 0.123 ± 0.00891 µM; koff ([3]; SPR): 1.01 s⁻¹; kon ([3]; SPR): 8.18e+06 M⁻¹ s⁻¹; lower target residence time than 7 ([3]; SPR): ~40 ×; TΔS binding entropy (human wild type TTR; listed as diclofenac): 17.1 ± 1.55 kJ/mol; ΔG binding free energy (human wild type TTR; listed as diclofenac): -36.7 ± 2.47 kJ/mol; ΔH binding enthalpy (human wild type TTR; listed as diclofenac): -19.6 ± 1.76 kJ/mol
						Fluorescein isothiocyanate [FITC]		change in FP signal upon addition of TTR (TTR [6]): no change in the FP signal
						Ro26-4550		IC50 (IL-2; read-out: IC50 (IL-2 antagonist)): 3 to 6 µM; IC50 (IL-2; read-out: IC50 (Ro26-4550 bound to IL2)): 6 µM

Molecule	TΔS binding entropy (human wild type TTR) [kJ/mol]	ΔG binding free energy (human wild type TTR) [kJ/mol]	ΔH binding enthalpy (human wild type TTR) [kJ/mol]	Kd (human wild type TTR; [7]) [µM]	Kd (human wild type TTR; read-out: ITC Kd) [µM]	Kd (TTR [2]; [8]) [µM]	inhibition of fibril formation (WT TTR) [%]	other results
O=C(c1cc(O)c(O)c([N+](=O)[O-])c1)c1ccccc1F [Ro 41-0960, reference compound]	-18 ± 0.46	-38.4 ± 1.97	-56.5 ± 1.34	0.184			> 75	prevention of V122I TTR-induced cytotoxicity (in words) [4]: completely prevented TTR-induced cytotoxicity; TΔS binding entropy (human wild type TTR; listed as Ro41-0960): -18 ± 0.46 kJ/mol; ΔG binding free energy (human wild type TTR; listed as Ro41-0960): -38.4 ± 1.97 kJ/mol; ΔH binding enthalpy (human wild type TTR; listed as Ro41-0960): -56.5 ± 1.34 kJ/mol; TTR aggregation inhibition (in words) (WT TTR; ligand 7.2 μM, 72 h): potent aggregation inhibitors; prevention of WT TTR-induced cytotoxicity (in words) [5]: completely prevented TTR-induced cytotoxicity
